How the values were obtained:
[1] = Preparation and optimization of drug suspension formulations; type: physicochemical
Experimental: The polymer based drug suspensions were prepared by: (1) Placebo formulation: 50:50 Poly(DL-lactide-co-glycolide) (PLGA), MW 10 or 27 kDa, or Poly(lactic acid) (PLA) MW 10 kDa, was mixed with N-methyl-2-pyrrolidone (NMP) or a combination of NMP and DMSO (e.g. 1:1 v/v) at various weight ratios of PLGA/solvent (w/w) and allowed to dissolve by continuous mixing at room temperature (Placebo). […] (2) Drug loading: […] (3) Depot formation: A sample from the resulting drug-loaded suspension formulation (30 μL, 30±3 mg) was injected into 200 mL of 0.01 M PBS pH 7.4 using a pipette and incubated at 37° C. for 24 h to produce a spherical implant, as an example. […] Of importance, but without being limited to any particular theory or mechanism of action, is the ratio of the polymer:solvent:drug that achieves high drug loading in a stable polymeric suspension formulation and which is correlated to the drug's saturation solubility in the solvent system.

[2] = In vitro drug release studies of ISFIs; type: physicochemical; details: ISFI suspension 1:4 PLGA/(NMP:DMSO), 290 mg/g
Experimental: Sample aliquots (1 mL) were collected at various time points and replaced with fresh release medium. The release medium was completely removed and replaced with fresh medium every week to maintain sink conditions. Drug concentration in the release samples was quantified by HPLC using the method described above. Cumulative drug release was calculated from the HPLC analysis and normalized to the total mass of drug in the implant. All experiments were performed in quadruplicate. ISFIs were prepared with 1:2 w/w PLGA:(NMP/DMPS 1:1) (PLGA MW 27 kDa, 50:50 LA/GA). […] To investigate the effect of polymer MW on CAB release kinetics, two CAB suspension ISFIs were prepared using PLGA (50:50 LA/GA) with MW of 10 kDa and 27 kDa. CAB was loaded at a constant concentration of 250 mg/g as a stable suspension formulation in a 1:2 PLGA/solvent (solvent=NMP/DMSO 1:1 w/w). […] 55 μg/d compared to 13.53 μg/d for PLGA MW 27 kDa. […] The effect of formulation composition and addition of rate controlling polymers like star-PLGA (5-arm 50:50 LA/GA PLGA MW 54 kDa) on drug release kinetics were also investigated. Three formulations were prepared using NMP/DMSO (1:1) as a co-solvent system, PLGA (50:50 LA/GA MW 27 kDa) and PLGA/star-PLGA (9:1 w/w) polymer combination. CAB was loaded at a constant concentration of 300 mg/g in all three formulations. […]

suspension formation when loaded above saturation concentration in PLGA/solvent placebo [1]: formed stable syringeable formulations
depot formation when injected into aqueous release medium ([1]; PBS, pH 7.4, 37° C.): formation of stable depots
burst release in 24 h ([2]; PBS 37° C.): < 2%
drug release at d3 ([2]; last timepoint analyzed): 3%
SMILES: Cn1c(Cn2ccc(C(F)(F)F)c(Oc3cc(Cl)cc(C#N)c3)c2=O)n[nH]c1=O [DOR, Doravirine]

Reference: patent US20240285769A1, “INJECTABLE, BIODEGRADABLE AND REMOVABLE POLYMER BASED DRUG SUSPENSION FOR ULTRA-LONG-ACTING DRUG DELIVERY” (The University of North Carolina at Chapel Hill, priority 2021, published 2024)
